For test [1], the target named is T1, Histone-lysine N-methyltransferase EHMT2 (Homo sapiens) (UniProt Q96KQ7).
T1 sequence (whole entry): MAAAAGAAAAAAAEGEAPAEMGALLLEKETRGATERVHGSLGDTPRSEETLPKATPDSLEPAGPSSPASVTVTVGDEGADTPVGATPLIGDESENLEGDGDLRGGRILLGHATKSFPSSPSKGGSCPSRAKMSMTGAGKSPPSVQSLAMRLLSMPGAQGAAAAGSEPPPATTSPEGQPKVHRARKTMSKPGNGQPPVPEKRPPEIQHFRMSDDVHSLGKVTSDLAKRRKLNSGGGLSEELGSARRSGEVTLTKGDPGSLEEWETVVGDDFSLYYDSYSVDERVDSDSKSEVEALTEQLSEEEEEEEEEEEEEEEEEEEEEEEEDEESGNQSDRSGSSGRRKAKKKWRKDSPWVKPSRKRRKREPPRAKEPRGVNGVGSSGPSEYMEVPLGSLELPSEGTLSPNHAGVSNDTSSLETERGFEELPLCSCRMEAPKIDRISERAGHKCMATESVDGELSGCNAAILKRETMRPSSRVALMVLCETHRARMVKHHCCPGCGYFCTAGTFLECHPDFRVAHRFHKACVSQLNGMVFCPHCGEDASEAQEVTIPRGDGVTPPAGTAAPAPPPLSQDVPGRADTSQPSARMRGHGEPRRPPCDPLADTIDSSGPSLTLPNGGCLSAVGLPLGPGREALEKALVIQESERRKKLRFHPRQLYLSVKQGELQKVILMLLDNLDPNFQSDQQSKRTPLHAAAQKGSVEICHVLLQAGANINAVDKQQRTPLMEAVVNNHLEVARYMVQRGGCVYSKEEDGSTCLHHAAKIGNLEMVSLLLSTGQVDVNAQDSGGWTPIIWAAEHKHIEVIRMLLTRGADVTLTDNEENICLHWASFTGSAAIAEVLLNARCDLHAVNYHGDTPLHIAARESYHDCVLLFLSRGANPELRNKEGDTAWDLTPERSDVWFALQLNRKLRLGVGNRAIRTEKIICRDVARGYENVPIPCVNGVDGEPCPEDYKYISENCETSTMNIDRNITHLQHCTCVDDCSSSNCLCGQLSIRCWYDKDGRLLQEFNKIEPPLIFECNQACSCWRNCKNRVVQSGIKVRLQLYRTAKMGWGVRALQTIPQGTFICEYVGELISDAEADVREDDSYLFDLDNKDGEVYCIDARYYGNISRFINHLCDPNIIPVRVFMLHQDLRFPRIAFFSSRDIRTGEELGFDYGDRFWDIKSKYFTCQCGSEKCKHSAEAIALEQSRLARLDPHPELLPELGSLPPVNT
As to the kind of experiment: Inhibition of wild type recombinant human histone lysine methyltransferase G9a (913 to 1193 residues) expressed in Escherichia coli Rosetta BL21 DE3 PlysS assessed as zinc ions ejection from 3 types of Cys9-type Zn fingers at >50 uM after 1 hr by circular dichroism analysis.

Test [2] has as its target T2, Histone-lysine N-methyltransferase EHMT1 (Homo sapiens) (UniProt Q9H9B1).
T2 sequence (whole entry): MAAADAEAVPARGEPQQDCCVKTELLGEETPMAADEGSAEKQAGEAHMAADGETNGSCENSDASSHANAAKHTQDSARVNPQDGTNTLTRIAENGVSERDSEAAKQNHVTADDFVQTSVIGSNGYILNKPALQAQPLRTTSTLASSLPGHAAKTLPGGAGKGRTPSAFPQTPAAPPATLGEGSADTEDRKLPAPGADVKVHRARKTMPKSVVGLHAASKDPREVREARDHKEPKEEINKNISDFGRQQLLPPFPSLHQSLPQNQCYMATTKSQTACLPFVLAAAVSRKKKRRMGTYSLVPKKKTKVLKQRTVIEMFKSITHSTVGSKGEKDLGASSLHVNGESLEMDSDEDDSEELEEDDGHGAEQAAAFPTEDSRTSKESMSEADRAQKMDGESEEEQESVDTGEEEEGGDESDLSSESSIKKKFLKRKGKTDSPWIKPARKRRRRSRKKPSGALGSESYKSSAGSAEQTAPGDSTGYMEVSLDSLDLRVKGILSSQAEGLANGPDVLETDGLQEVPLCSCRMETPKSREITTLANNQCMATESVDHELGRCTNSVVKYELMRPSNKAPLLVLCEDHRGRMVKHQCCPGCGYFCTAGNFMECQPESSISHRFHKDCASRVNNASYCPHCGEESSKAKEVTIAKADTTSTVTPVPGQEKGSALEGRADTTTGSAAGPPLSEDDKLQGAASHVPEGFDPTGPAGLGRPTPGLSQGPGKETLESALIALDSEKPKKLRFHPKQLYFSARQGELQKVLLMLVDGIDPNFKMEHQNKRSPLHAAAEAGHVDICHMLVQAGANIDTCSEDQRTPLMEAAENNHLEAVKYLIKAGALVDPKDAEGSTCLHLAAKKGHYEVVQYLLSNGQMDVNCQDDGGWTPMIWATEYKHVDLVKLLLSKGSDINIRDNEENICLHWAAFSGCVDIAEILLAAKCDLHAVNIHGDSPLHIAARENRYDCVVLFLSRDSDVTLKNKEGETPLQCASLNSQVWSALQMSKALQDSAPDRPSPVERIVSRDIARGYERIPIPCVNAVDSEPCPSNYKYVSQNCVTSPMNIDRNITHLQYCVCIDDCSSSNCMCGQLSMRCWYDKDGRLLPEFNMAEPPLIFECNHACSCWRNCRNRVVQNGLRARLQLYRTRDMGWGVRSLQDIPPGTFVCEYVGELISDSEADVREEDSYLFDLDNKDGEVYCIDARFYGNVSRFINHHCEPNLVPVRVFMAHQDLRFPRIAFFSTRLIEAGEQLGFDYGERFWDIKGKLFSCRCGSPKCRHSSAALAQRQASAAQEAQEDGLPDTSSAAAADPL
As to the kind of experiment: Inhibition of wild type recombinant human histone lysine methyltransferase GLP (951 to 1235 residues) expressed in Escherichia coli Rosetta BL21 DE3 PlysS assessed as zinc ions ejection from Cys4-Zn finger at 2.5 to 100 uM measured up to 1 min by FluoZin-3 based fluorescence assay.

The structures appear in SMILES notation. Activity calls are given as the source filed them. No cut-off for these calls is given here.

This is an account of results in ChEMBL document CHEMBL4184305, “Inhibition of histone lysine methyltransferases G9a and GLP by ejection of structural Zn(II)” (Bioorg Med Chem Lett, 2018).

For `CCN(CC)C(=S)SSC(=S)N(CC)CC`, the inhibition result in test [1] was “Active”.

With `O=c1c2ccccc2[se]n1-c1ccccc1` [EBSELEN], the inhibition result in test [2] was “Active”.
